Test results: patent publication US9243038B2, “Macrocyclic insulin-degrading enzyme (IDE) inhibitors and uses thereof” (President and Fellows of Harvard College, priority 2011, dated 2016)
Like-named read-outs stand apart in the source and are kept apart here. Values belong to the compound of their own block, whether it stands above or below them.

Experiments:
IDE [1] = target: T1, IDE (Homo sapiens (Human), UniProt P14735); experiment: In vitro selection of DNA-templated macrocycle library against immobilized IDE; assay type: binding
Protocol: Selections of the DNA-templated library were performed as described previously.^9 20 μg of IDE was immobilized on 30 μL of Dynabeads His-Tag Isolation and Pulldown (Invitrogen) magnetic particles according to the manufacturer's instructions. Elution of captured DNA-library members was performed by incubating the protein-loaded particles with 200 mM imidazole. Prior to PCR amplification, imidazole was removed from the eluted samples by gel filtration using Princeton Separations Sephadex minicolumns.
Insulin-degrading enzyme (IDE) protein was obtained in its purified form with a poly-histidine tag and immobilized on magnetic particles coated with cobalt. After incubation with the DNA-templated library, non-binding library members were washed away with buffer, and protein-library member complexes were eluted from resin with imidazole (FIG. 1). DNA-templated library members enriched after target selection were PCR amplified with target-specific barcoded primers that appended adaptors required for Illumina high-throughput DNA sequencing. We performed two independent selection replicates with IDE and three independent selections against empty resin as negative control selections. These five barcoded selection PCR amplicons were pooled in equimolar quantities and submitted for Illumina high-throughput DNA sequencing. High-throughput sequencing yielded 19 million sequence reads—an average of ˜3.8 million sequence reads per selection.
After one round of in vitro selection, we identified DNA sequences corresponding to macrocycles A12-B8-C11-D5 (3), A12-B8-C5-D5 (5), A12-B8-C6-D5 (6) and A12-B8-C8-D5 (2) enriched between 4- to 14-fold against IDE (FIG. 2a, IDE selection 1); these same macrocycles were also enriched 3- to 6-fold in a replicate IDE selection (FIG. 2a, IDE selection 2).

IDE [2] = target: T1, IDE; experiment: In vitro protease assay with IDE (cleavage of fluorophore-quencher substrate peptide); assay type: biochemical; conditions: for potency of trans-olefin isomer relative to corresponding cis-olefin isomer: trans vs cis isomer, IDE inhibition; for activity / potency against IDE (in words): derivatives compared with 6b
Protocol: Protease assays with IDE and neprilysin were performed using Mca-RPPGFSAFK(Dnp)-OH substrate peptide (R&D Systems, SEQ ID NO: 6) and purified recombinant human IDE and recombinant human neprilysin (R&D Systems) according to the manufacturer's instructions. For IDE, 2 μL of small molecule dissolved in DMSO was combined with 48 μL 0.2 μg/mL IDE in IDE assay buffer (50 mM Tris, 1 M NaCl, pH 7.5). 50 μL of 20 μM substrate peptide in IDE assay buffer was then added to initiate the reaction, and peptide cleavage was monitored on a fluorescent plate reader (excitation=320 nm; emission=405 nm) for 5 minutes. The above protocol was also used for assaying neprilysin activity, substituting the neprilysin assay buffer (50 mM Tris, 0.05% Brij-35, pH 9.0).
Compounds were synthesized as described previously;^9 in most cases the macrocycle synthesis yielded two isomers corresponding to the cis and trans olefins generated after macrocyclization. Macrocycles were assayed for IDE inhibition by monitoring cleavage of a substrate peptide^13 containing a fluorophore-quencher pair such that cleavage of the model substrate results in increased fluorescence.

recombinant human THOP1 = recombinant human THOP1 (Homo sapiens (Human), UniProt P52888); experiment: In vitro protease assay with THOP1; assay type: biochemical
Protocol: (§1) Protease assays with THOP1 and NLN were performed using MCA-Pro-Leu-Gly-Pro-D-Lys(DNP)-OH (Bachem, SEQ ID NO: 7) and purified recombinant human THOP1 and NLN (R&D Systems) according to the manufacturer's instructions.

IDE [3] = target: T1, IDE; experiment: Yonetani-Theorell double inhibition of IDE; assay type: biochemical; conditions: varying concentrations of both 6b and Ii1
Excerpt: The lack of obvious structural relationship between 6b and known IDE substrates, together with its excellent selectivity profile, raised the possibility that 6b may inhibit IDE by binding an allosteric site, rather than the active site. To test this possibility, we assayed IDE in vitro in the presence of varying concentrations of both 6b and Ii1.

[4] = Preliminary pharmacokinetics after i.p. injection (LC-MS quantitation in plasma); conditions: mice, 20 mg/kg i.p.
[5] = target: recombinant human neprilysin (Homo sapiens (Human), UniProt P08473); experiment: In vitro protease assay with neprilysin; conditions: even when assayed at 100 μM
[6] = Biodistribution assay (LC-MS of brain, pancreas, plasma after IP injection); assay type: in vivo, mouse; conditions: mice, 45 minutes after intraperitoneal injection
Protocol: Macrocycles were diluted to 0.1 mg/mL or 1 mg/mL in PBS and IP-injected into a mouse to produce a concentration of 1 mg/kg or 10 mg/kg, respectively. After 45 minutes, organs were harvested, and the small-molecule fractions were extracted into a 2:1:1 mixture of chloroform:methanol:water. Samples were evaporated under a stream of nitrogen, resuspended in 100 μL of chloroform and subjected to LC-MS analysis.
The tissue distribution of enriched macrocycles after i.p. injection was examined. […] Briefly, compounds were injected at different concentrations intraperitoneally into mice, and plasma, brain, and pancreas were harvested after 45 minutes. Vehicle-only injections were performed as negative controls. We determined the relative amount of macrocycle present by extracting the organs with organic solvents and quantifying the amount of compound present by LC-MS analysis.

recombinant human NLN = recombinant human NLN (Homo sapiens (Human), UniProt Q9BYT8); experiment: In vitro protease assay with NLN; assay type: biochemical
Protocol: as §1

trypsin = experiment: Trypsin activity assay (Z-Arg-AMC substrate); conditions: even when assayed at 100 μM
plasma IDE activity = plasma IDE activity (Mus musculus (Mouse), UniProt Q9JHR7); experiment: Plasma IDE activity in mice injected with inhibitor; assay type: in vivo; conditions: 60 min after 10 mg/kg, 20 mg/kg, or 40 mg/kg i.p. injection, vs vehicle
Protocol: Finally, we compared plasma IDE activity in mice injected with 6b with plasma IDE activity in control mice injected with vehicle alone (18:1:1, saline:DMSO:Tween-80). Plasma IDE activity 60 min after 10 mg/kg, 20 mg/kg, or 40 mg/kg i.p. injection of 6b was inhibited by ≧90% (FIG. 9).

Solubility = assay type: physicochemical
[7] = fluorophore-quencher model peptide

T1 sequence (P14735 whole entry): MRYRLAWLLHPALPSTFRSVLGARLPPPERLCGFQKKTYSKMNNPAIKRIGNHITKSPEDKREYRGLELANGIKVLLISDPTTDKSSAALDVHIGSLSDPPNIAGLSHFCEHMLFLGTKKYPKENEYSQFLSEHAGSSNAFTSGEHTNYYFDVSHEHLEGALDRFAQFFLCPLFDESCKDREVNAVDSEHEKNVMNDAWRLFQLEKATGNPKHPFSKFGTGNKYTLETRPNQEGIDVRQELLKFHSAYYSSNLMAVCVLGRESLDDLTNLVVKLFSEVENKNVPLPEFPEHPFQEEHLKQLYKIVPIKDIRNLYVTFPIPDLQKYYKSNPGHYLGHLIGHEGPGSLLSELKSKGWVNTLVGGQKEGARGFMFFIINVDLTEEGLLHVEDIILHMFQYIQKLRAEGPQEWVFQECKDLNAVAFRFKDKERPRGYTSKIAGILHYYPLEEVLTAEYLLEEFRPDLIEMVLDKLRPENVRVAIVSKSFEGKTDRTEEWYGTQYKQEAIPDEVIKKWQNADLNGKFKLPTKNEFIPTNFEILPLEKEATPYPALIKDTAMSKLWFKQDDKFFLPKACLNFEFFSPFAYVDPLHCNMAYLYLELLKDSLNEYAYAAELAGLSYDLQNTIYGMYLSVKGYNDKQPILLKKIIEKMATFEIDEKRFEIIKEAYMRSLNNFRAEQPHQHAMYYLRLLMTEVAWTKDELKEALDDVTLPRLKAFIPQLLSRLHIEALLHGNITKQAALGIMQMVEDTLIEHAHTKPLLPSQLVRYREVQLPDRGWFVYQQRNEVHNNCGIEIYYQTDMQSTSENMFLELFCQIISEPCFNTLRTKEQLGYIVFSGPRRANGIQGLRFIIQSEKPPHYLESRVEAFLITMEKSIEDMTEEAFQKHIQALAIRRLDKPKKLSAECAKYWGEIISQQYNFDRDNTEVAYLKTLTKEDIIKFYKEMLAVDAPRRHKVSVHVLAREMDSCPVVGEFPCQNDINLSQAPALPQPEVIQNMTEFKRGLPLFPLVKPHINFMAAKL
Sequence of recombinant human THOP1 (P52888 whole entry): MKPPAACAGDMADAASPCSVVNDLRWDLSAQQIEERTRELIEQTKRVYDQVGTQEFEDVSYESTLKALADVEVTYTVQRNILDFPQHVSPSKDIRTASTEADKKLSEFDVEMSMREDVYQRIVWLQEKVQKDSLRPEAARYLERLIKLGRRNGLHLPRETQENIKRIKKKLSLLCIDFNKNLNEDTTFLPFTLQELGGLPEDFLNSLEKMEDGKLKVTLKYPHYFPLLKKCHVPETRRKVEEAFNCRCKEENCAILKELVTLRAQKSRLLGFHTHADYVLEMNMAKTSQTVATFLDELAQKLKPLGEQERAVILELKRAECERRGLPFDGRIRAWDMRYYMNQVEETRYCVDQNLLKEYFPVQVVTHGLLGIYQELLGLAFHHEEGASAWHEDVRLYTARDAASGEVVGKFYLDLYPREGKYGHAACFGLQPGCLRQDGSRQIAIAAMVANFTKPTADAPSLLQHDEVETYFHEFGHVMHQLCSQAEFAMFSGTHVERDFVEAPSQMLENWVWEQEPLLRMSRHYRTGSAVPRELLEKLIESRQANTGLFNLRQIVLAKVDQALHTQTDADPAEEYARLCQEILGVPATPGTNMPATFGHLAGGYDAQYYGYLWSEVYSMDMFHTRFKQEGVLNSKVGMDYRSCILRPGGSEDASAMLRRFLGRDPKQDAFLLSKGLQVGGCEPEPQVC
Sequence of recombinant human NLN (Q9BYT8 38-704): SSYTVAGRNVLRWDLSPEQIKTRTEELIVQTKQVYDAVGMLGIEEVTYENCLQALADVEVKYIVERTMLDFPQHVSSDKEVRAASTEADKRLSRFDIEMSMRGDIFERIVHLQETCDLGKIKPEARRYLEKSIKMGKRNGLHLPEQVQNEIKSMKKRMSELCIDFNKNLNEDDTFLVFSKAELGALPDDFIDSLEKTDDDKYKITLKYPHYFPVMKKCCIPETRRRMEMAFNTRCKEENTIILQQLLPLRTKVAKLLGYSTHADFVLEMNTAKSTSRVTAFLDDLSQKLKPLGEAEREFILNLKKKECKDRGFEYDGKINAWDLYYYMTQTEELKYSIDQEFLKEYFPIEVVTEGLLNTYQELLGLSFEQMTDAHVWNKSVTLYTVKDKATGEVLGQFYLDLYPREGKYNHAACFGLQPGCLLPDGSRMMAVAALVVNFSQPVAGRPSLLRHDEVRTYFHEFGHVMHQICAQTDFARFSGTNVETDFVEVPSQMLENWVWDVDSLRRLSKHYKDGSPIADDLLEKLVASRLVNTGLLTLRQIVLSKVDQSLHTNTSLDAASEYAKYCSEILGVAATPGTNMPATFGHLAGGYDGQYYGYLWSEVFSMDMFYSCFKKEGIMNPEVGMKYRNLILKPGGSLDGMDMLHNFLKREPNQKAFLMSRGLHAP
Sequence of plasma IDE activity (Q9JHR7 other isoform, or with tags, fused parts or gaps): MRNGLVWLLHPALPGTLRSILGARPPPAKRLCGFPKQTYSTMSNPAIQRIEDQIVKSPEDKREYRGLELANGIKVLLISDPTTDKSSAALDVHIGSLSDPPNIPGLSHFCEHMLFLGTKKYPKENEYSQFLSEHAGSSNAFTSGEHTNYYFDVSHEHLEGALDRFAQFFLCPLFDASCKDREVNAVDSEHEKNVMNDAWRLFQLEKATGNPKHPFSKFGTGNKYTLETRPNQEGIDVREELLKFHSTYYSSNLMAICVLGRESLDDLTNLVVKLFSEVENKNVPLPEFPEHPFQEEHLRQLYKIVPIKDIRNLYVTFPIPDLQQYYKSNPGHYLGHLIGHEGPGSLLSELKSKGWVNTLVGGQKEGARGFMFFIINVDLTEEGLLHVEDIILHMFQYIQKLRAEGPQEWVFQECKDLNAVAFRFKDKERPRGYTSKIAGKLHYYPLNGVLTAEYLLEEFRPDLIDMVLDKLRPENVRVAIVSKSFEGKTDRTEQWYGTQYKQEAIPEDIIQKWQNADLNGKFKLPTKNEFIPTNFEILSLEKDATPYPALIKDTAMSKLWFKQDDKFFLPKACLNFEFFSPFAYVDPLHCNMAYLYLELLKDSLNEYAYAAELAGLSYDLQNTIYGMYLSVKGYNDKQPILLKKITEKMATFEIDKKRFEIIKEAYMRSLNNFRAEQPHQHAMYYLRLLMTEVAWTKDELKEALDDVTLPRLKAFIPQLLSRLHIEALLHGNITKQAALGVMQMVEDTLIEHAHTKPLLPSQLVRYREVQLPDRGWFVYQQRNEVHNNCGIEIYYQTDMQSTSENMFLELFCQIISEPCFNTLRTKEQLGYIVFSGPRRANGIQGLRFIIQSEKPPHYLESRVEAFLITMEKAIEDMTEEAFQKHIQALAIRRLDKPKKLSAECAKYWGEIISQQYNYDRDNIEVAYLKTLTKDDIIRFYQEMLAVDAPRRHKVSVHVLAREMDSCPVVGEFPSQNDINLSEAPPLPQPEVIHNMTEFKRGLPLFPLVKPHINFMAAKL
Sequence of recombinant human neprilysin (P08473 whole entry): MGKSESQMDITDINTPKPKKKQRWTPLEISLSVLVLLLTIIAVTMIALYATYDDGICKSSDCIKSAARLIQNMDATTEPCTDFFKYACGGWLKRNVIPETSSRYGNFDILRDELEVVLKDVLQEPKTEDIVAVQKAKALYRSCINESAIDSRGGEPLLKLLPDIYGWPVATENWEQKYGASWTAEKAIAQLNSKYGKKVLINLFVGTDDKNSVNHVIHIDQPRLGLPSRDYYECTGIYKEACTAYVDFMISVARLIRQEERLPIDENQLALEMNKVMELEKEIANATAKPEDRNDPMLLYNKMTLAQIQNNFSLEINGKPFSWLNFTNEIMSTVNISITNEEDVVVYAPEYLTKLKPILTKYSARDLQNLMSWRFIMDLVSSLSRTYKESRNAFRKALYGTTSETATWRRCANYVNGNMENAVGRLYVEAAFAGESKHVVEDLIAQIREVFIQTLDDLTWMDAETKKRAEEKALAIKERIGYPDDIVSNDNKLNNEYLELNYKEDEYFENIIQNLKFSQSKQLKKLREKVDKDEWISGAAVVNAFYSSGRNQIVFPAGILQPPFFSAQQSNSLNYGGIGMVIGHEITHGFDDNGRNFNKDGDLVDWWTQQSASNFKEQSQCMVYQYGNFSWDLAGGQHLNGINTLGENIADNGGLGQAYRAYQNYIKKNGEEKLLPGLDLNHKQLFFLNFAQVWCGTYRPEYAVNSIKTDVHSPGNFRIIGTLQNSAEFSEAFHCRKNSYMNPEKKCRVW

SMILES: NC(=O)C1CCCCNC(=O)C(Cc2ccc(C(=O)c3ccccc3)cc2)NC(=O)C(CC2CCCCC2)NC(=O)CC(O)C(CC2CCCCC2)NC(=O)C=CC(=O)N1 (mixture of isomers) [Compound 3]
enrichment against IDE (IDE [1]; IDE selection 1, one round): 4- to 14 fold
enrichment against IDE (IDE [1]; replicate IDE selection 2): 3- to 6 fold
potency of trans-olefin isomer relative to corresponding cis-olefin isomer (IDE [2]): > 10 fold

SMILES: NC(=O)C1CCCCNC(=O)CNC(=O)C(CC2CCCCC2)NC(=O)CC(O)C(CC2CCCCC2)NC(=O)C=CC(=O)N1 (mixture of isomers) [Compound 4]
enrichment against IDE (in words) (IDE [1]): less strongly enriched
activity / potency against IDE (in words) (IDE [2]): inactive

SMILES: NC(=O)C1CCCCNC(=O)C(Cc2ccc(C(=O)c3ccccc3)cc2)NC(=O)C(CC2CCCCC2)NC(=O)C(CC2CC2)NC(=O)C=CC(=O)N1 (mixture of isomers) [Compound 5]
enrichment against IDE (IDE [1]; IDE selection 1, one round): 4- to 14 fold
enrichment against IDE (IDE [1]; replicate IDE selection 2): 3- to 6 fold
potency of trans-olefin isomer relative to corresponding cis-olefin isomer (IDE [2]): > 10 fold

SMILES: NC(=O)CCC1NC(=O)C=CC(=O)NC(C(N)=O)CCCCNC(=O)C(Cc2ccc(C(=O)c3ccccc3)cc2)NC(=O)C(CC2CCCCC2)NC1=O (mixture of isomers) [Compound 6]
enrichment against IDE (IDE [1]; IDE selection 1, one round): 4- to 14 fold
enrichment against IDE (IDE [1]; replicate IDE selection 2): 3- to 6 fold
potency of trans-olefin isomer relative to corresponding cis-olefin isomer (IDE [2]): > 10 fold

SMILES: NC(=O)CCC1NC(=O)C=CC(=O)NC(C(N)=O)CCCCNC(=O)CNC(=O)C(CC2CCCCC2)NC1=O (centres unmarked) [Compound 1]
enrichment against IDE (in words) (IDE [1]): less strongly enriched
activity / potency against IDE (in words) (IDE [2]): inactive
IC50 (IDE [2]; [7]): > 100 µM

SMILES: N=C(N)NCCCC1NC(=O)C=CC(=O)NC(C(N)=O)CCCCNC(=O)C(Cc2ccc(C(=O)c3ccccc3)cc2)NC(=O)C(CC2CCCCC2)NC1=O (centres unmarked) [Compound 2]
enrichment against IDE (IDE [1]; IDE selection 1, one round): 4- to 14 fold
enrichment against IDE (IDE [1]; replicate IDE selection 2): 3- to 6 fold
IC50 (IDE [2]; [7]): 10 µM

SMILES: NC(=O)C1CCCCNC(=O)C(Cc2ccc(C(=O)c3ccccc3)cc2)NC(=O)C(CC2CCCCC2)NC(=O)CC(O)C(CC2CCCCC2)NC(=O)C=CC(=O)N1 (centres unmarked) [Compound 3a]
IC50 (IDE [2]; [7]): > 20 µM

SMILES: NC(=O)C1CCCCNC(=O)C(Cc2ccc(C(=O)c3ccccc3)cc2)NC(=O)C(CC2CCCCC2)NC(=O)CC(O)C(CC2CCCCC2)NC(=O)C=CC(=O)N1 (centres unmarked) [Compound 3b]
IC50 (IDE [2]; [7]): 1.5 µM

SMILES: NC(=O)C1CCCCNC(=O)CNC(=O)C(CC2CCCCC2)NC(=O)CC(O)C(CC2CCCCC2)NC(=O)C=CC(=O)N1 (centres unmarked) [Compound 4a]
IC50 (IDE [2]; [7]): > 100 µM

SMILES: NC(=O)CCC1NC(=O)C=CC(=O)NC(C(N)=O)CCCCNC(=O)C(Cc2ccc(C(=O)c3ccccc3)cc2)NC(=O)C(CC2CCCCC2)NC1=O (centres unmarked) [Compound 6a]
IC50 (IDE [2]; [7]): 5.6 µM

SMILES: NC(=O)CCC1NC(=O)C=CC(=O)NC(C(N)=O)CCCCNC(=O)C(Cc2ccc(C(=O)c3ccccc3)cc2)NC(=O)C(CC2CCCCC2)NC1=O (centres unmarked) [Compound 6b]
activation of THOP1 (recombinant human THOP1; at higher concentrations): Slight activation
inhibition of thimet oligopeptidase (THOP1) (recombinant human THOP1; even when assayed at 100 μM): failed to demonstrate any significant inhibition
binding site relative to Ii1 (double inhibition plot) (IDE [3]): binding sites of Ii1 and 6b are distinct
time of peak blood concentration [4]: 60 min
tolerability of injections [4]: well tolerated
peak blood concentration ([4]; 18:1:1 saline:DMSO:Tween-80): 0.2 µM
inhibition of neprilysin (NEP) [5]: failed to demonstrate any significant inhibition
detection in brain [6]: none of the three compounds could be detected
detection in pancreas [6]: could be detected
detection in plasma [6]: could be detected
macrocycle concentration in plasma (comparison) [6]: comparable
IC50 (IDE [2]): 0.14 µM
IC50 (IDE [2]; [7]): 0.06 µM
activation of NLN (recombinant human NLN; at higher concentrations): Slight activation
inhibition of neurolysin (NLN) (recombinant human NLN; even when assayed at 100 μM): failed to demonstrate any significant inhibition
inhibition of trypsin (trypsin): failed to demonstrate any significant inhibition
inhibition of plasma IDE activity (plasma IDE activity): ≥ 90%

SMILES: NCCCC[C@@H]1NC(=O)/C=C/C(=O)NC(C(N)=O)CCCCNC(=O)[C@@H](Cc2ccc(C(=O)c3ccccc3)cc2)NC(=O)[C@H](CC2CCCCC2)NC1=O (some centres unmarked) [Compound 20]
solubility in water or saline (Solubility): < 100 mM
activity / potency against IDE (in words) (IDE [2]): equipotent

SMILES: N=C(N)NCCC[C@H](NC(=O)[C@@H](CC(=O)NO)Cc1ccc2ccccc2c1)C(=O)N[C@@H](Cc1c[nH]c2ccccc12)C(=O)N[C@@H](CCC(=O)O)C(N)=O [Ii1, reference compound]
IC50 (recombinant human THOP1): 0.006 µM
IC50 (recombinant human NLN): 0.15 µM

Second part, the compound after the results:

IC50 (IDE [2]; [7]): > 20 µM
SMILES: NC(=O)C1CCCCNC(=O)C(Cc2ccc(C(=O)c3ccccc3)cc2)NC(=O)C(CC2CCCCC2)NC(=O)C(CC2CC2)NC(=O)C=CC(=O)N1 (centres unmarked) [Compound 5a]

IC50 (IDE [2]; [7]): 1 µM
SMILES: NC(=O)C1CCCCNC(=O)C(Cc2ccc(C(=O)c3ccccc3)cc2)NC(=O)C(CC2CCCCC2)NC(=O)C(CC2CC2)NC(=O)C=CC(=O)N1 (centres unmarked) [Compound 5b]
